# Assay results taken from patent publication US10912850B2, “18F-FNDP for pet imaging of soluble epoxide hydrolase (sEH)” (THE JOHNS HOPKINS UNIVERSITY, priority 2016, dated 2021).
# Several values for one entry are separate records, joined by “and”; a condition that tells them apart may be missing. Equal entries are not always repeated. Where two headings read alike, the source gives them in different places.
# Columns and labels:
# [1] = Radiometabolite HPLC analysis of baboon arterial plasma; type: in vivo, Papio anubis (baboon); details: 90 min post-injection
# Experimental: Baboon arterial blood samples were collected at very short intervals (<5 s) initially and gradually at prolonged intervals throughout the PET study for determination of plasma radioactivity. […] Med. Biol., 2000). […] The effluent from the capture column, containing only highly polar components, flowed through a dual BGO detector (Bioscan, Washington, D.C.). The solvent was then switched to a mixture of 60% acetonitrile/40% 0.1 M aqueous ammonium formate pH=2.7 (2 mL/min) to elute the radiolabeled components bound to the capture column onto the analytical column (Gemini C18, 4.6×254 mm, Phenomenex, Torrance, Calif.).
# sEH [2] = molecular target: T1, sEH (Mus musculus, UniProt P34914); experiment: Blocking of 18F-FNDP binding in CD-1 mice with nor-fluoro-FNDP (dose escalation); type: in vivo
# T1 construct: from tissue; host or cells: brain of living CD-1 mice (striatum, cortex, hippocampus, cerebellum)
# T1 sequence (P34914 1-554): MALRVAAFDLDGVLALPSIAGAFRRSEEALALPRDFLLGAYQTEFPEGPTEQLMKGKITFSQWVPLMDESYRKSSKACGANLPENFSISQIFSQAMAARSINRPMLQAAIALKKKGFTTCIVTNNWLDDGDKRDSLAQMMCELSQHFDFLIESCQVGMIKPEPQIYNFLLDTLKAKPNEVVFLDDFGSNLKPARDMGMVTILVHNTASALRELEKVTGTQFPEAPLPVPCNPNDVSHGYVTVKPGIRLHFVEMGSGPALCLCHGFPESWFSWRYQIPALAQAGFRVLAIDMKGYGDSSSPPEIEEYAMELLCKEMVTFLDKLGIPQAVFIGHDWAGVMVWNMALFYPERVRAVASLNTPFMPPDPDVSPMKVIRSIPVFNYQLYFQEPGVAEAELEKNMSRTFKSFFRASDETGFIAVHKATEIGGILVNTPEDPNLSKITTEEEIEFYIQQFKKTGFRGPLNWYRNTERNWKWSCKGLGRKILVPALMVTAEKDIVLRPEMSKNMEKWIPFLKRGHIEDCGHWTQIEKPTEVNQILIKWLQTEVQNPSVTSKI
# Experimental: Ninety minutes after administration of the radiotracer the animals were sacrificed by cervical dislocation, brain tissues were harvested, and their radioactivity content was determined.
# [3] = Baseline regional brain biodistribution of 18F-FNDP in CD-1 mice; type: in vivo; details: for Regional distribution in CD-1 mouse brain (mean % ID/g tissue ± SD): n=3
# Experimental: Baseline study in CD1 mice. […] The brains were removed and dissected on ice. Striatum, cortex, hippocampus, hypothalamus, cerebellum and the rest of brain were weighed and their radioactivity content was determined in a γ-counter LKB/Wallac 1283 CompuGamma CS (Perkin Elmer, Bridgeport, Conn.). Aliquots of the injectate were prepared as standards and their radioactivity content was determined along with the tissue samples. The percent of injected dose per gram of tissue (% ID/g tissue) was calculated.
# sEH [4] = experiment: Baboon dynamic PET imaging, baseline and blocking (SUV, VT, K1); details: for Time of regional TAC peak: post-injection; for Average K1 (rate constant for transfer from arterial plasma to tissue): two-tissue-three-compartment model
# Experimental: Dynamic baseline and blocking PET experiments (90 min) were performed on three male baboons (Papio anubis) weighing 23.9, 25.0 and 28.2 kg, using the High Resolution Research Tomograph (HRRT, CPS Innovations, Inc., Knoxville, Tenn.). […] Radiometabolite analysis in baboon arterial blood was performed under the general conditions published previously (Hilton et al., Nucl. Med. Biol., 2000).
# PET experiments were performed on a male baboon (Papio anubis) weighing 28.2 kg, using the High Resolution Research Tomograph (HRRT, CPS Innovations, Inc., Knoxville, Tenn.). The animal underwent one baseline PET scan and one blocking scan 3 weeks later. The animal was fasted for 12 h prior to each PET study. Anesthesia was induced with intramuscular ketamine (7.5-10 mg/kg) and maintained with a continuous intravenous infusion of propofol at 0.3-0.4 mg/kg/min throughout the PET experiment. One venous catheter was inserted for the radioligand injection, and one arterial catheter inserted to obtain arterial blood samples. Measurement of the arterial plasma input function was conducted through collection of 43 blood samples over the course of the 90 min dynamic PET scan. The baboon was also intubated to facilitate respiration, and circulatory volume was maintained by constant infusion of isotonic saline. Physiological vital signs including heart rate, blood pressure, electrocardiogram, and oxygen saturation were monitored continuously throughout the study.
# The animal was positioned in the PET scanner with the head immobilized with a thermoplastic mask. A 6 min transmission scan was acquired using a rotating [^137Cs] cesium source for attenuation correction.
# The 90 min PET list mode data were binned into 22 frames (three 20 s, two 30 s, two 1 min, three 2 min, eight 5 min, and four 10 min frames). The data were then reconstructed using the iterative ordered subsets expectation maximization (OS-EM) algorithm (with six iterations and 16 subsets), with correction for radioactive decay, dead time, attenuation, scatter and randoms. The attenuation maps were generated from 6 min transmission scans performed with a [^137Cs] cesium point source prior to the emission scans. The reconstructed image space consisted of cubic voxels, each 1.22 mm^3 in size, and spanning dimensions of 31 cm×31 cm (transaxially) and 25 cm (axially).
# The software package PMOD (v3.3, PMOD Technologies Ltd, Zurich, Switzerland) was used for the following image processing and subsequent kinetic analysis steps. The previously acquired brain MRI T1-weighted images for the baboon were co-registered to the reconstructed dynamic PET images acquired in this study. Through manually matching the co-registered MRI to the INIA19 Template and NeuroMaps Atlas for Primate Brain Image Parcellation and Spatial Normalization (Rohlfing et al., Frontiers in neuroinformatics, 2012), 13 representative baboon brain VOIs were defined, including frontal and temporal gyms, thalamus, hippocampus, caudate, putamen, amygdala, globus pallidus, insula, hypothalamus, cerebellum, corpus callosum, and white matter. Brain regional TACs were then generated for both baseline and blocking PET scans using those VOIs.
# Following the consensus nomenclature for in vivo imaging of reversibly binding radioligands (Innis et al., J. Cereb. Blood Flow Metab., 2007), due to the lack of a non-displaceable reference region, the main outcome measure was regional distribution volume (VT), defined as the ratio of the concentration of the radioligand in regional brain tissue to that in plasma at equilibrium. Regional VT is proportional to the receptor density in the defined VOL VT was calculated using the Logan graphical method for each VOI (Logan et al., J. Cereb. Blood Flow Metab., 1990).
# sEH [5] = type: in vivo, mice (sEH-KO, C57BL/6); details: for Regional uptake, baseline: C57BL6 control mice, 60 min post-injection
# Experimental: All animals were sacrificed at 60 min after radiotracer injection.
# [6] = Molecular properties (log P); type: physicochemical
smiles,measurement,setting,value
"O=C(NCCC(c1ccccc1)c1ccccc1)c1ccc([18F])nc1 [^18F-FNDP, N-(3,3-diphenylpropyl)-6-^18F-fluoronicotinamide]",Parent compound remaining in plasma,[1],20%
same,Residual (non-specific) binding at the high dose of the blocker,"sEH [2]; CD-1 mouse brain, blocker nor-fluoro-FNDP",10%
same,Blockade of uptake,"sEH [2]; mice, all brain regions, pre-treatment with sEH inhibitor",80-90%
same,Degree of specificity of cerebral sEH labeling,sEH [2]; two strains of control mice (CD-1 and C57BL/6),80-90%
same,Peak brain uptake,"[3]; CD-1 mice, at peak uptake",5.2 percent injected dose per gram of tissue
same,Regional distribution in CD-1 mouse brain (mean % ID/g tissue ± SD),"[3]; Cerebellum, 5 min",2.75 ± 0.11 % ID/g tissue
same,Regional distribution in CD-1 mouse brain (mean % ID/g tissue ± SD),"[3]; Cerebellum, 15 min",1.31 ± 1.01 % ID/g tissue
same,Regional distribution in CD-1 mouse brain (mean % ID/g tissue ± SD),"[3]; Cerebellum, 30 min",1.09 ± 0.16 % ID/g tissue
same,Regional distribution in CD-1 mouse brain (mean % ID/g tissue ± SD),"[3]; Cerebellum, 60 min",0.52 ± 0.07 % ID/g tissue
same,Regional distribution in CD-1 mouse brain (mean % ID/g tissue ± SD),"[3]; Cerebellum, 90 min",0.29 ± 0.04 % ID/g tissue
same,Regional distribution in CD-1 mouse brain (mean % ID/g tissue ± SD),"[3]; Cortex, 5 min",4.69 ± 0.21 % ID/g tissue
same,Regional distribution in CD-1 mouse brain (mean % ID/g tissue ± SD),"[3]; Cortex, 15 min",2.92 ± 0.36 % ID/g tissue
same,Regional distribution in CD-1 mouse brain (mean % ID/g tissue ± SD),"[3]; Cortex, 30 min",2.07 ± 0.05 % ID/g tissue
same,Regional distribution in CD-1 mouse brain (mean % ID/g tissue ± SD),"[3]; Cortex, 60 min",0.87 ± 0.14 % ID/g tissue
same,Regional distribution in CD-1 mouse brain (mean % ID/g tissue ± SD),"[3]; Cortex, 90 min",0.45 ± 0.05 % ID/g tissue
same,Regional distribution in CD-1 mouse brain (mean % ID/g tissue ± SD),"[3]; Hippocampus, 5 min",3.29 ± 0.54 % ID/g tissue
same,Regional distribution in CD-1 mouse brain (mean % ID/g tissue ± SD),"[3]; Hippocampus, 15 min",2.51 ± 0.34 % ID/g tissue
same,Regional distribution in CD-1 mouse brain (mean % ID/g tissue ± SD),"[3]; Hippocampus, 30 min",1.76 ± 0.15 % ID/g tissue
same,Regional distribution in CD-1 mouse brain (mean % ID/g tissue ± SD),"[3]; Hippocampus, 60 min",0.81 ± 0.15 % ID/g tissue
same,Regional distribution in CD-1 mouse brain (mean % ID/g tissue ± SD),"[3]; Hippocampus, 90 min",0.43 ± 0.06 % ID/g tissue
same,Regional distribution in CD-1 mouse brain (mean % ID/g tissue ± SD),"[3]; Hypothalamus, 5 min",2.59 ± 0.18 % ID/g tissue
same,Regional distribution in CD-1 mouse brain (mean % ID/g tissue ± SD),"[3]; Hypothalamus, 15 min",1.66 ± 0.28 % ID/g tissue
same,Regional distribution in CD-1 mouse brain (mean % ID/g tissue ± SD),"[3]; Hypothalamus, 30 min",1.04 ± 0.08 % ID/g tissue
same,Regional distribution in CD-1 mouse brain (mean % ID/g tissue ± SD),"[3]; Hypothalamus, 60 min",0.51 ± 0.07 % ID/g tissue
same,Regional distribution in CD-1 mouse brain (mean % ID/g tissue ± SD),"[3]; Hypothalamus, 90 min",0.31 ± 0.05 % ID/g tissue
same,Regional distribution in CD-1 mouse brain (mean % ID/g tissue ± SD),"[3]; Rest of brain, 5 min",3.53 ± 0.11 % ID/g tissue
same,Regional distribution in CD-1 mouse brain (mean % ID/g tissue ± SD),"[3]; Rest of brain, 15 min",2.37 ± 0.34 % ID/g tissue
same,Regional distribution in CD-1 mouse brain (mean % ID/g tissue ± SD),"[3]; Rest of brain, 30 min",1.64 ± 0.06 % ID/g tissue
same,Regional distribution in CD-1 mouse brain (mean % ID/g tissue ± SD),"[3]; Rest of brain, 60 min",0.71 ± 0.10 % ID/g tissue
same,Regional distribution in CD-1 mouse brain (mean % ID/g tissue ± SD),"[3]; Rest of brain, 90 min",0.38 ± 0.04 % ID/g tissue
same,Regional distribution in CD-1 mouse brain (mean % ID/g tissue ± SD),"[3]; Striatum, 5 min",5.24 ± 0.45 % ID/g tissue
same,Regional distribution in CD-1 mouse brain (mean % ID/g tissue ± SD),"[3]; Striatum, 15 min",3.29 ± 0.36 % ID/g tissue
same,Regional distribution in CD-1 mouse brain (mean % ID/g tissue ± SD),"[3]; Striatum, 30 min",2.32 ± 0.15 % ID/g tissue
same,Regional distribution in CD-1 mouse brain (mean % ID/g tissue ± SD),"[3]; Striatum, 60 min",1.07 ± 0.14 % ID/g tissue
same,Regional distribution in CD-1 mouse brain (mean % ID/g tissue ± SD),"[3]; Striatum, 90 min",0.54 ± 0.07 % ID/g tissue
same,Peak brain uptake value,"[3]; mouse brain, peak (5 min post-injection)",5.2 % ID/g and 5 % ID/g
same,Blockade of brain uptake,"sEH [4]; baboon PET, all regions",95%
same,Time of regional TAC peak,sEH [4]; baboon blocking study (nor-fluoro-FNDP 2 mg/kg s.c.),about 1 min
same,Average SUV at the end of the scan,"sEH [4]; baboon blocking study, end of 90 min scan",0.18 g/mL
same,Brain SUV,sEH [4]; baboon brain,4
same,Time of regional TAC peak,"sEH [4]; baboon brain, baseline scan",about 5 min
same,Peak SUV of the entire brain,"sEH [4]; baboon, baseline scan",3.2
same,SUV of the entire brain at the end of the scan,"sEH [4]; baboon, baseline, end of 90 min dynamic scan",1.8
same,Average K1 (rate constant for transfer from arterial plasma to tissue),"sEH [4]; baboon, baseline",0.18 ml/cm^3/min
same,Average K1 (rate constant for transfer from arterial plasma to tissue),"sEH [4]; baboon, blocking",0.14 ml/cm^3/min
same,"Reduction of VT, blocking vs baseline","sEH [4]; baboon, cerebellum",93%
same,Average SUV at end of blocking scan as percent of the baseline value,"sEH [4]; baboon, end of 90 min scan",10%
same,"Reduction of VT, blocking vs baseline","sEH [4]; baboon, insula and amygdala",95%
same,Specificity of sEH radiolabeling,sEH [4]; both animal species (mouse and baboon),up to 95%
same,"Regional uptake, baseline",sEH [5]; cerebellum,0.5 % ID/g
same,"Regional uptake, baseline","sEH [5]; striatum, hippocampus and cortex",about 1 % ID/g
same,"Brain uptake, blocking experiment","sEH [5]; C57BL6 mice, all regions studied, nor-fluoro-FNDP 1 mg/kg s.c., 60 min",~0.2 % ID/g tissue
same,Blocking effect,"sEH [5]; C57BL/6 controls, nor-fluoro-FNDP 1 mg/kg s.c.",about 80%
same,Reduction of uptake in sEH-KO mice as compared with controls,"sEH [5]; baseline, 60 min after radiotracer injection, C57BL/6 controls",about 90%
same,Radiotracer uptake in sEH-KO mice,sEH [5]; sEH-KO mice,Minimal
same,"Regional brain uptake, baseline","sEH [5]; sEH-KO mice, 60 min",0.11-0.12 % ID/g
same,Reduction of uptake in blockade study,"sEH [5]; sEH-KO mice, blocker nor-fluoro-FNDP",negligible
same,"Regional brain uptake, blocking","sEH [5]; sEH-KO mice, nor-fluoro-FNDP 1 mg/kg s.c., 60 min",0.10-0.11 % ID/g
same,Brain uptake in sEH-KO mice lower than in controls,sEH [5]; sEH-KO vs controls,10 fold
"O=C(NCCC(c1ccccc1)c1ccccc1)c1ccc(F)nc1 [FNDP, N-(3,3-diphenylpropyl)-6-fluoronicotinamide]",log P,[6],2.9
